Drawing on PMC7913291, “Synthesis and Anti-Hepatocarcinoma Effect of Amino Acid Derivatives of Pyxinol and Ocotillol” (Molecules, 2021), this text covers IC50, oral bioavailability and t1/2 for 24 compounds.

As a reminder, the IC50 is the concentration that inhibits the measured activity by half.

Structures are written as SMILES.

Data set [1] has as its system HepG2 cells. As to the kind of experiment: Cytotoxic activity on HepG2 cells (CCK-8 assay). The data set is classed as cell-based. Particulars: Homo sapiens, HepG2; CCK-8, 48 h, mean of three experiments ±SD; read-out: IC50 over HepG2 cells. As to the method: Human hepatocellular liver carcinoma cell line (HepG2) were obtained from Institute of Biochemistry and Cell Biology, Academy of Science (Shanghai, China) and were authenticated using the STR profiling method. HepG2 cells were cultured in MDEM (Gibco, Waltham, MA, USA) supplemented with 10% fetal bovine serum (FBS) and 1% penicillin-streptomycin bubbled with 5% CO2-enriched air at a temperature of 37 °C (Thermo Scientific, Waltham, MA, USA). The cytotoxic effect of compounds on HepG2 cells was assessed by using CCK-8 method. Briefly, HepG2 cells were cultured in 96-well plates at a density of 5 × 10^3 cells per well for 24 h. […] Three replicates were performed. The relative cell viability was expressed as percentage relative to the untreated cells. The inhibition ratio was calculated. The IC50 values were calculated using Logistic regression from three independent tests.
On the technique in general: Tetrazolium assays rely on reduction of a dye to a coloured formazan, in cell work by metabolically active cells.

The conditions of data set [2]: rats; cited from earlier work.

For the compound `C[C@H](NC(=O)OC(C)(C)C)C(=O)O[C@H]1CC[C@@]2(C)C(CC[C@]3(C)C2C[C@@H](O)C2C([C@]4(C)CC[C@H](C(C)(C)O)O4)CC[C@]23C)C1(C)C` (stereo partly drawn) [1a, (20S, 24R)-Epoxy-3β-O-(Boc-L-alanyl)-dammarane-12β, 25-diol], the IC50 in data set [1] amounted to 26.3 ± 0.72 µM.

Take `CSCC[C@H](NC(=O)OC(C)(C)C)C(=O)O[C@H]1CC[C@@]2(C)C(CC[C@]3(C)C2C[C@@H](O)C2C([C@]4(C)CC[C@H](C(C)(C)O)O4)CC[C@]23C)C1(C)C` (stereo partly drawn) [1b, (20S, 24R)-Epoxy-3β-O-(Boc-L-methinyl)-dammarane-12β, 25-diol]: the IC50 in data set [1] was 73.5 ± 2.6 µM.

Consider `CC(C)(C)OC(=O)NCC(=O)O[C@H]1CC[C@@]2(C)C(CC[C@]3(C)C2C[C@@H](O)C2C([C@]4(C)CC[C@H](C(C)(C)O)O4)CC[C@]23C)C1(C)C` (stereo partly drawn) [1c, (20S, 24R)-Epoxy-3β-O-(Boc-L-glycyl)-dammarane-12β, 25-diol], for which the IC50 in data set [1] was found to be 26.6 ± 1.52 µM.

Regarding `CC(C)C[C@H](NC(=O)OC(C)(C)C)C(=O)O[C@H]1CC[C@@]2(C)C(CC[C@]3(C)C2C[C@@H](O)C2C([C@]4(C)CC[C@H](C(C)(C)O)O4)CC[C@]23C)C1(C)C` (stereo partly drawn) [1d, (20S, 24R)-Epoxy-3β-O-(Boc-L-leucyl)-dammarane-12β,25-diol], the IC50 in data set [1] was 73.1 ± 1.67 µM.

Regarding `CC(C)(C)OC(=O)N1CCCC1C(=O)O[C@H]1CC[C@@]2(C)C(CC[C@]3(C)C2C[C@@H](O)C2C([C@]4(C)CC[C@H](C(C)(C)O)O4)CC[C@]23C)C1(C)C` (stereo partly drawn) [1e, (20S, 24R)-Epoxy-3β-O-(Boc-L-prolyl)-dammarane-12β, 25-diol], in data set [1], the IC50 is 30.5 ± 2.98 µM.

For `CC(C)[C@H](NC(=O)OC(C)(C)C)C(=O)O[C@H]1CC[C@@]2(C)C(CC[C@]3(C)C2C[C@@H](O)C2C([C@]4(C)CC[C@H](C(C)(C)O)O4)CC[C@]23C)C1(C)C` (stereo partly drawn) [1f, (20S, 24R)-Epoxy-3β-O-(Boc-L-valyl)-dammarane-12β, 25-diol], the IC50 in data set [1] amounted to 62.1 ± 3.78 µM.

Turning to `C[C@H](N)C(=O)O[C@H]1CC[C@@]2(C)C(CC[C@]3(C)C2C[C@@H](O)C2C([C@]4(C)CC[C@H](C(C)(C)O)O4)CC[C@]23C)C1(C)C` (stereo partly drawn) [2a, (20S, 24R)-Epoxy-3β-O-(L-alanyl)-dammarane-12β, 25-diol], the IC50 in data set [1] turned out to be 16.5 ± 1.66 µM.

`CSCC[C@H](N)C(=O)O[C@H]1CC[C@@]2(C)C(CC[C@]3(C)C2C[C@@H](O)C2C([C@]4(C)CC[C@H](C(C)(C)O)O4)CC[C@]23C)C1(C)C` (stereo partly drawn) [2b, (20S, 24R)-Epoxy-3β-O-(L-methinyl)-dammarane-12β, 25-diol]: the half-maximal inhibitory concentration (IC50) in data set [1] was 20.3 ± 2.04 µM.

`CC(C)(O)[C@H]1CC[C@@](C)(C2CC[C@]3(C)C2[C@H](O)CC2[C@@]4(C)CC[C@H](OC(=O)CN)C(C)(C)C4CC[C@]23C)O1` (stereo partly drawn) [2c, (20S, 24R)-Epoxy-3β-O-(L-glycyl)-dammarane-12β, 25-diol]: the IC50 in data set [1] is 16.3 ± 0.31 µM.

In the case of `CC(C)C[C@H](N)C(=O)O[C@H]1CC[C@@]2(C)C(CC[C@]3(C)C2C[C@@H](O)C2C([C@]4(C)CC[C@H](C(C)(C)O)O4)CC[C@]23C)C1(C)C` (stereo partly drawn) [2d, (20S, 24R)-Epoxy-3β-O-(L-leucyl)-dammarane-12β, 25-diol], the 50% inhibitory concentration (IC50) in data set [1] turned out to be 20.1 ± 3.49 µM.

On to `CC(C)[C@H](N)C(=O)O[C@H]1CC[C@@]2(C)C(CC[C@]3(C)C2C[C@@H](O)C2C([C@]4(C)CC[C@H](C(C)(C)O)O4)CC[C@]23C)C1(C)C` (stereo partly drawn) [2f, (20S, 24R)-Epoxy-3β-O-(L-valyl)-dammarane-12β, 25-diol], for which the IC50 in data set [1] was 19.7 ± 1.96 µM.

Regarding `C[C@H](NC(=O)OC(C)(C)C)C(=O)O[C@H]1CC[C@@]2(C)C([C@@H](O)C[C@]3(C)C2C[C@@H](O)C2C([C@]4(C)CC[C@H](C(C)(C)O)O4)CC[C@]23C)C1(C)C` (stereo partly drawn) [3a, (20S, 24R)-Epoxy-3β-O-(Boc-L-alanyl)-dammarane-6α,12β,25-triol], in data set [1], the IC50 stood at 61 ± 1.57 µM.

Turning to `CSCC[C@H](NC(=O)OC(C)(C)C)C(=O)O[C@H]1CC[C@@]2(C)C([C@@H](O)C[C@]3(C)C2C[C@@H](O)C2C([C@]4(C)CC[C@H](C(C)(C)O)O4)CC[C@]23C)C1(C)C` (stereo partly drawn) [3b, (20S, 24R)-Epoxy-3β-O-(Boc-L-methinyl)-dammarane-6α,12β,25-triol], the IC50 in data set [1] stood at 88.6 ± 5.03 µM.

As to `CC(C)(C)OC(=O)NCC(=O)O[C@H]1CC[C@@]2(C)C([C@@H](O)C[C@]3(C)C2C[C@@H](O)C2C([C@]4(C)CC[C@H](C(C)(C)O)O4)CC[C@]23C)C1(C)C` (stereo partly drawn) [3c, (20S, 24R)-Epoxy-3β-O-(Boc-L-glycyl)-dammarane-6α,12β,25-triol], the IC50 in data set [1] is 32.6 ± 1.55 µM.

In the case of `CC(C)C[C@H](NC(=O)OC(C)(C)C)C(=O)O[C@H]1CC[C@@]2(C)C([C@@H](O)C[C@]3(C)C2C[C@@H](O)C2C([C@]4(C)CC[C@H](C(C)(C)O)O4)CC[C@]23C)C1(C)C` (stereo partly drawn) [3d, (20S, 24R)-Epoxy-3β-O-(Boc-L-leucyl)-dammarane-6α,12β,25-triol], in data set [1], the IC50 amounted to 74.9 ± 2.87 µM.

Regarding `CC(C)(C)OC(=O)N1CCCC1C(=O)O[C@H]1CC[C@@]2(C)C([C@@H](O)C[C@]3(C)C2C[C@@H](O)C2C([C@]4(C)CC[C@H](C(C)(C)O)O4)CC[C@]23C)C1(C)C` (stereo partly drawn) [3e, (20S, 24R)-Epoxy-3β-O-(Boc-L-prolyl)-dammarane-6α,12β,25-triol], the IC50 in data set [1] was determined as 41.8 ± 2.58 µM.

For `CC(C)[C@H](NC(=O)OC(C)(C)C)C(=O)O[C@H]1CC[C@@]2(C)C([C@@H](O)C[C@]3(C)C2C[C@@H](O)C2C([C@]4(C)CC[C@H](C(C)(C)O)O4)CC[C@]23C)C1(C)C` (stereo partly drawn) [3f, (20S, 24R)-Epoxy-3β-O-(Boc-L-valyl)-dammarane-6α,12β,25-triol], the IC50 in data set [1] was 80.1 ± 2.03 µM.

For the compound `C[C@H](N)C(=O)O[C@H]1CC[C@@]2(C)C([C@@H](O)C[C@]3(C)C2C[C@@H](O)C2C([C@]4(C)CC[C@H](C(C)(C)O)O4)CC[C@]23C)C1(C)C` (stereo partly drawn) [4a, (20S, 24R)-Epoxy-3β-O-(L-alanyl)-dammarane-6α,12β,25-triol], the IC50 in data set [1] was 34 ± 0.9 µM.

Regarding `CSCC[C@H](N)C(=O)O[C@H]1CC[C@@]2(C)C([C@@H](O)C[C@]3(C)C2C[C@@H](O)C2C([C@]4(C)CC[C@H](C(C)(C)O)O4)CC[C@]23C)C1(C)C` (stereo partly drawn) [4b, (20S, 24R)-Epoxy-3β-O-(L-methinyl)-dammarane-6α,12β,25-triol], the IC50 in data set [1] came to 50.6 ± 0.62 µM.

As to `CC(C)(O)[C@H]1CC[C@@](C)(C2CC[C@]3(C)C2[C@H](O)CC2[C@@]4(C)CC[C@H](OC(=O)CN)C(C)(C)C4[C@@H](O)C[C@]23C)O1` (stereo partly drawn) [4c, (20S, 24R)-Epoxy-3β-O-(-L-glycyl)-dammarane-6α,12β,25-triol], the IC50 in data set [1] worked out at 20.6 ± 2.47 µM.

As to `CC(C)C[C@H](N)C(=O)O[C@H]1CC[C@@]2(C)C([C@@H](O)C[C@]3(C)C2C[C@@H](O)C2C([C@]4(C)CC[C@H](C(C)(C)O)O4)CC[C@]23C)C1(C)C` (stereo partly drawn) [4d, (20S, 24R)-Epoxy-3β-O-(L-leucyl)-dammarane-6α,12β,25-triol], the IC50 in data set [1] turned out to be 35.4 ± 1.59 µM.

Consider `CC(C)(O)[C@H]1CC[C@@](C)(C2CC[C@]3(C)C2[C@H](O)CC2[C@@]4(C)CC[C@H](OC(=O)C5CCCN5)C(C)(C)C4[C@@H](O)C[C@]23C)O1` (stereo partly drawn) [4e, (20S, 24R)-Epoxy-3β-O-(L-prolyl)-dammarane-6α,12β,25-triol], for which the IC50 in data set [1] came out at 24.6 ± 0.35 µM.

Take `CC(C)[C@H](N)C(=O)O[C@H]1CC[C@@]2(C)C([C@@H](O)C[C@]3(C)C2C[C@@H](O)C2C([C@]4(C)CC[C@H](C(C)(C)O)O4)CC[C@]23C)C1(C)C` (stereo partly drawn) [4f, (20S, 24R)-Epoxy-3β-O-(L-valyl)-dammarane-6α,12β,25-triol]: the IC50 in data set [1] amounted to 44.7 ± 3.07 µM.

In the case of `CC(C)(O)C1CCC(C)(C2CCC3(C)C2C(O)CC2C4(C)CCC(O)C(C)(C)C4CCC23C)O1` (centres unmarked) [Pyxinol], in data set [1], the IC50 amounted to 74.5 ± 1.09 µM. Moreover, in data set [2], the oral bioavailability result is recorded as “low” and the t1/2 entry is “short”.
